From ChEMBL document CHEMBL4382224, “Synthesis and evaluation of potent and selective MGL inhibitors as a glaucoma treatment” (Bioorg Med Chem, 2019)
pIC50: −log10 of the molar value. Active and inactive are the calls of the source. The calls are words filed in the database; no cut-off is given here.

Legend:
[1] = target: Cannabinoid receptor 2 (Mus musculus) (UniProt P47936); assay: Displacement of [3H]CP-55,940 from recombinant mouse CB2 receptor expressed in HEK293 cells at >1 uM after 1 hr by scintillation counting method; type: cell-based
Cannabinoid receptor 2 (Mus musculus), sequence (P47936 whole entry): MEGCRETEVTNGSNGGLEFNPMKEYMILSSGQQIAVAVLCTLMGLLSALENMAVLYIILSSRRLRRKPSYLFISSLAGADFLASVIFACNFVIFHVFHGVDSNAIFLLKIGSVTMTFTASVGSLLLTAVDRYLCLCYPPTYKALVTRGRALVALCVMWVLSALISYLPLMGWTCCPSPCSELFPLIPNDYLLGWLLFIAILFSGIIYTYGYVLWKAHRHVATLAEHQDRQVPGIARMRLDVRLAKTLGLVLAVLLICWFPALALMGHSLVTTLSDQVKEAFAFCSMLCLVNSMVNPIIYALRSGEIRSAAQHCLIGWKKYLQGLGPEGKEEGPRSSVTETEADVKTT

Cannabinoid receptor 1 = Cannabinoid receptor 1 (Rattus norvegicus, UniProt P20272); assay: Displacement of [3H]CP-55,940 from rat CB1 receptor at >1 uM after 1 hr by scintillation counting method
Cannabinoid receptor 1, sequence (P20272 whole entry): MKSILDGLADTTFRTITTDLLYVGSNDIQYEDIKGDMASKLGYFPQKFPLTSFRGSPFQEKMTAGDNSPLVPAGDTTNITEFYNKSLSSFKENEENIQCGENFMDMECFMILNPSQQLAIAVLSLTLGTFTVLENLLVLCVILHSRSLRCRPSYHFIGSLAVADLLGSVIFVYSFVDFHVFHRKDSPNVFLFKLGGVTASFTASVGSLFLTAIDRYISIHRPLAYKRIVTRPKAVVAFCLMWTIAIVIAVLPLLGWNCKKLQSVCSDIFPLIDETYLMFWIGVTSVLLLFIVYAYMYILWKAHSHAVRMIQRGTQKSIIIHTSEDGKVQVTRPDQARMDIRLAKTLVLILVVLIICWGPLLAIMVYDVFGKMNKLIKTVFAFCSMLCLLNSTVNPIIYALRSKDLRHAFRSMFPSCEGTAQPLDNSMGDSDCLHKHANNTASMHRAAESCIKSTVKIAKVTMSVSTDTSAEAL

[2] = target: T1, Monoacylglycerol lipase ABHD6 (Homo sapiens) (UniProt Q9BV23); assay: Inhibition of human ABHD6 at >10 uM
T1 sequence (whole entry): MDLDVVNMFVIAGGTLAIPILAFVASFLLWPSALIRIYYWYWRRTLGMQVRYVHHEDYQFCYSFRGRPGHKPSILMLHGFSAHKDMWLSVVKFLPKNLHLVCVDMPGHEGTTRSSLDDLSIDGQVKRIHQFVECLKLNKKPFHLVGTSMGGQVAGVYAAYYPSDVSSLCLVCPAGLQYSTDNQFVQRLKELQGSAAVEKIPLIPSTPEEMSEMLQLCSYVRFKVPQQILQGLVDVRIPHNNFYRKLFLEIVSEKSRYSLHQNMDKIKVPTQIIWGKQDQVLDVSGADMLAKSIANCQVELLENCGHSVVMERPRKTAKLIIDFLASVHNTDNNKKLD

[3] = target: Cannabinoid receptor 2 (Homo sapiens) (UniProt P34972); assay: Displacement of [3H]CP-55,940 from recombinant human CB2 receptor expressed in HEK293 cells at >1 uM after 1 hr by scintillation counting method; type: cell-based
Cannabinoid receptor 2 (Homo sapiens), sequence (P34972 whole entry): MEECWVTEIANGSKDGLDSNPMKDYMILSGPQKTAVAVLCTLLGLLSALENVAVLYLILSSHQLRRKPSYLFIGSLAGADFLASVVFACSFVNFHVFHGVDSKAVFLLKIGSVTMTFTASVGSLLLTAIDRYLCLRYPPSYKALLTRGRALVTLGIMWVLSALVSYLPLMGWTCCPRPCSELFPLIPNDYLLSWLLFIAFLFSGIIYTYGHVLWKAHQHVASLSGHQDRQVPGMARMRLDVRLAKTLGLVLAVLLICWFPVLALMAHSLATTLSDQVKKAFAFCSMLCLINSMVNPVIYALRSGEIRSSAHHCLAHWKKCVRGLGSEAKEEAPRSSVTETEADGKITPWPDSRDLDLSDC

[4] = target: T2, Fatty-acid amide hydrolase 1 (Rattus norvegicus, UniProt P97612); assay: Inhibition of rat FAAH using AAMCA as substrate by fluorescence assay
T2 sequence (P97612 whole entry): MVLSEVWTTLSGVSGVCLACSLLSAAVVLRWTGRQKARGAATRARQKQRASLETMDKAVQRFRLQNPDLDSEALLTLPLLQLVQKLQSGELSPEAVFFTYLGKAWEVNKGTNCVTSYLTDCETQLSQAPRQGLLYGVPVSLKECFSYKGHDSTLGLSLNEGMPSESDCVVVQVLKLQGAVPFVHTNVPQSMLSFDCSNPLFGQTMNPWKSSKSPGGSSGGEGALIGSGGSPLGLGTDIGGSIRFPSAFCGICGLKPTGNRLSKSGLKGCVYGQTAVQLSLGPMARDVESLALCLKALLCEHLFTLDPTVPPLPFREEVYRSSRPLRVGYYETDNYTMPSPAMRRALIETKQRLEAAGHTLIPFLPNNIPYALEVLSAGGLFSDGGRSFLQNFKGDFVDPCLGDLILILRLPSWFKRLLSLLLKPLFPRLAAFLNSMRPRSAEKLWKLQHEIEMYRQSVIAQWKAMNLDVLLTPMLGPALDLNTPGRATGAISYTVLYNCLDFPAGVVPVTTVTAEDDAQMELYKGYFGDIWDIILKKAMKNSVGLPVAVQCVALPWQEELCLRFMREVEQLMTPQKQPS

[5] = Half life in mouse plasma at 200 uM by HPLC analysis; type: ADME, cell-free
[6] = Half life in rat plasma at 200 uM by HPLC analysis; type: ADME, cell-free
[7] = Oral bioavailability in CD1 mouse at 10 mg/kg; type: ADME, organism-based; details: in vivo
[8] = Half life in human plasma at 200 uM by HPLC analysis; type: ADME, cell-free
Mus musculus = assay: Anti-glaucoma activity in normotensive C57BL/6J mouse assessed as intraocular pressure at 3 mM administered as single topical treatment measured after 28 hrs by tonometry (reference value: […] +/- 1.1 mmHg); type: functional
[9] = Mean residence time in CD1 mouse at 2 mg/kg, iv or 10 mg/kg, po; type: ADME, organism-based; details: in vivo
[10] = Half life in rat liver microsomes pretreated with compounds followed by NADPH addition by LC-MS/MS analysis; type: ADME, Microsome
[11] = Half life in mouse liver microsomes pretreated with compounds followed by NADPH addition by LC-MS/MS analysis; type: ADME, Microsome
[12] = Half life in human liver microsomes pretreated with compounds followed by NADPH addition by LC-MS/MS analysis; type: ADME, Microsome
[13] = Drug uptake in CD1 mouse brain at 2 mg/kg, iv or 10 mg/kg, po; type: ADME, organism-based; details: in vivo

Structure (SMILES) | Activity [1] | Activity (Cannabinoid receptor 1) | inhibition [2] | Activity [3] | pIC50 [4] | t1/2 [5] [h] | t1/2 [6] [h] | bioavailability [7] [%] | t1/2 [8] [h] | Activity (Mus musculus) [mmHg] | MRT [9] [h] | t1/2 [10] [h] | t1/2 [11] [h] | t1/2 [12] [h] | Drug uptake [13] [%]
CC(C)N1CCN(C(=O)Oc2cccc(C#N)c2)CC1 | inactive | Not Active | inactive | inactive | 7.17 | – | – | – | – | – | – | – | – | – | –
O=C(Oc1ccccc1)N1CCN(C(c2ccccc2)c2ccccc2)CC1 | inactive | Not Active | inactive | inactive | – | – | – | – | – | – | – | – | – | – | –
N#Cc1ccnc(OC(=O)N2CCC(C(c3ccccc3)c3ccccc3)CC2)c1 | inactive | Not Active | inactive | inactive | < 6.00 | – | – | – | – | – | – | – | – | – | –
N#Cc1cccc(OC(=O)N2CCC(C(c3ccccc3)c3ccccc3)CC2)n1 | inactive | Not Active | inactive | inactive | < 6.00 | – | – | – | – | – | – | – | – | – | –
N#Cc1cccc(OC(=O)N2CCN(C(c3ccccc3)c3ccccc3)CC2)c1 | inactive | Not Active | inactive | inactive | < 6.00 | – | – | – | – | – | – | – | – | – | –
N#Cc1cc(F)cc(OC(=O)N2CCC(C(c3ccccc3)c3ccccc3)CC2)c1 | inactive | Not Active | inactive | inactive | < 6.00 | – | – | – | – | – | – | – | – | – | –
COc1cc(C#N)cc(OC(=O)N2CCC(C(c3ccccc3)c3ccccc3)CC2)c1 | inactive | Not Active | inactive | inactive | < 6.00 | – | – | – | – | – | – | – | – | – | –
N#Cc1cccc(OC(=O)N2CCN(C(c3ccc(F)cc3)c3ccc(F)cc3)CC2)c1 | inactive | Not Active | inactive | inactive | < 6.00 | – | – | – | – | – | – | – | – | – | –
N#Cc1cccc(OC(=O)N2CCC(OC(c3ccccc3)c3ccccc3)CC2)c1 | inactive | Not Active | inactive | inactive | < 6.00 | – | – | – | – | – | – | – | – | – | –
N#Cc1cc(O)cc(OC(=O)N2CCC(C(c3ccccc3)c3ccccc3)CC2)c1 | inactive | Not Active | inactive | inactive | < 6.00 | – | – | – | – | – | – | – | – | – | –
Cc1cc(C#N)cc(OC(=O)N2CCC(C(c3ccccc3)c3ccccc3)CC2)c1 | inactive | Not Active | inactive | inactive | < 6.00 | – | – | – | – | – | – | – | – | – | –
N#Cc1cccc(OC(=O)N2CCC(C(c3ccc(Cl)cc3)c3ccc(Cl)cc3)CC2)c1 | inactive | Not Active | inactive | inactive | < 6.00 | – | – | – | – | – | – | – | – | – | –
N#Cc1cccc(OC(=O)N2CCC(S(=O)(=O)C(c3ccccc3)c3ccccc3)CC2)c1 | inactive | Not Active | inactive | inactive | – | – | – | – | – | – | – | – | – | – | –
N#Cc1cccc(OC(=O)N2CCN(C3CCCCC3)CC2)c1 | inactive | Not Active | inactive | inactive | 7.17 | – | – | – | – | – | – | – | – | – | –
N#Cc1cccc(OC(=O)N2CCN(C(c3ccccc3)c3cccnc3)CC2)c1 (stereo not drawn) | inactive | Not Active | inactive | inactive | < 6.00 | – | – | – | – | – | – | – | – | – | –
N#Cc1cccc(OC(=O)N2CCN(C3CC3)CC2)c1 | inactive | Not Active | inactive | inactive | 7.20 | – | – | – | – | – | – | – | – | – | –
N#Cc1cccc(OC(=O)N2CCC(C(c3ccccc3)c3ccccc3)CC2)c1 | inactive | Not Active | inactive | inactive | < 6.00 | > 2 | > 2 | 15 | > 2 | 19.9 | 6 | 0.717 | 0.333 | 2.03 | 65
N#Cc1cccc(OC(=O)N2CCN(C3c4ccccc4-c4ccccc43)CC2)c1 | inactive | Not Active | inactive | inactive | < 6.00 | – | – | – | – | – | – | – | – | – | –
N#Cc1cccc(OC(=O)N2CCC(NC(c3ccccc3)c3ccccc3)CC2)c1 | inactive | Not Active | inactive | inactive | < 6.00 | – | – | – | – | – | – | – | – | – | –
N#Cc1ccc(F)c(OC(=O)N2CCC(C(c3ccccc3)c3ccccc3)CC2)c1 | inactive | Not Active | inactive | inactive | < 6.00 | – | – | – | – | – | – | – | – | – | –
